{
  "source": "patent US7312358B2",
  "about": "“Pharmaceutically active sulfanilide derivatives” (Laboratoires Serono SA, priority 2000, dated 2007)",
  "key": {"hOT receptor": {"molecular_target": "T1, hOT receptor (Homo sapiens, UniProt P30559)", "T1 construct": "expressed in transfected cells; host or cells: HEK293EBNA cells (membranes)", "T1 sequence (P30559 1-389)": "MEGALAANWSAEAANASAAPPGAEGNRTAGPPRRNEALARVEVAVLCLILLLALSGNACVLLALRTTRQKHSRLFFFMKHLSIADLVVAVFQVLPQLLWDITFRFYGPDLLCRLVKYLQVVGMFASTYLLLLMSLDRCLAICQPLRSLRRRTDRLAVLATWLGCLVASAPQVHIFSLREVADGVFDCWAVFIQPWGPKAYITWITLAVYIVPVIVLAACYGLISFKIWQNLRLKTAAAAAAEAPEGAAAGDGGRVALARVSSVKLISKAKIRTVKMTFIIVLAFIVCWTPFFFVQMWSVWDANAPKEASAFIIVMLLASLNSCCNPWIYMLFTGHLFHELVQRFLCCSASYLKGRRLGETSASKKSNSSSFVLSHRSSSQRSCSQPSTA", "experiment": "In vitro competition binding assay on hOT receptor with scintillating proximity assay", "settings": "membranes from HEK293EBNA cells expressing hOT receptor; radiolabel [125I]-OVTA; SPA; read-out: Binding Affinity Human OT-R Ki", "how_it_was_run": "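SPA competition binding using HEK293EBNA membranes expressing hOT receptor (2-4 μg) with WGA beads and 0.2 nM [125I]-OVTA in 50 mM Tris-HCl pH 7.4, 5 mM MgCl2, 0.1% BSA, 30 min at room temperature. Non-specific binding with 1 μM oxytocin; compounds at 10 pM–30 μM; IC50 by nonlinear curve fitting.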"}, "[1]": {"system": "oxytocin-induced uterine contractions in the rat", "experiment": "In vivo model for inhibition of uterine contractions", "settings": "anaesthetised DES-treated non-pregnant female rat, route not given", "protocol": "f) In Vivo Model for Inhibition of Uterine Contractions\nThe assay intends to show the biological effect of tested compounds in an in vivo model of preterm labor, premature birth.\nNon-pregnant Charles River CD(SD) BR female rats (9-10 weeks old, 200-250 g) were treated at 18 and 24 hours before the experiment with 250 μg/kg, i.p. diethylstilbestrol (DES). For the assay, the animal was anaesthetised by urethane (1.75 g/kg, i.p.) and placed on an homeothennic operating table. The trachea was isolated and cannulated with a suitable polyethylene (PE) tubing. A midline incision at the hypogastrium level was made and one uterine horn exposed, its cephalic end cannulated with a PE240 tubing and, after filling the internal cavity with 0.2 ml of sterile physiological saline, connected to a “Gemini” amplifying/recording system via a P231D Gould Statham pressure transducer. For the i.v. route of administration of the test compounds, one jugular vein was isolated and cannulated with a PE60 tubing connected to a butterfly needle to allow the administration by a dispensing syringe. In the case of intraduodenal administration of the test compounds, the duodenum was isolated and similarly cannulated through a small incision in its wall. One carotid artery was also isolated and cannulated with PE60 catheter and connected to a suitable syringe for blood sample collection (see below). After a stabilization period, the same dose of oxytocin was repeatedly injected intravenously at 30-min intervals. […] Further injections of the same dose of oxytocin were then made for a suitable time after treatment to assess inhibitory effects of the compounds under study. The contractile response of the uterus to oxytocin was quantified by measuring the intra-uterine pressure and the number of contractions. The effect of the reference and test compounds were evaluated by comparing pre- and post-treatment pressure values. In addition, at 2, 30, 90 and 210 minutes after test compound administration, a 0.5-ml blood sample was withdrawn from the cannulated carotid artery of each experimental animal. Plasma was obtained by standard laboratory procedure and the resulting samples were stored at −20° C.\nThe activities of the sulfanilide derivatives claimed in the Formula I were assessed using the above described in vivo biological assay. The values refer to the capacity of the example compound according to Formula I to effectively antagonize oxytocin-induced uterine contractions in the rat."}},
  "data": [
    {"smiles": "CCOc1ccc(S(=O)(=O)N(CC(=O)N/N=C2/C(=O)Nc3ccccc32)c2ccc(C)cc2)cc1", "note": "[Example 5, 4-ethoxy-N-(4-methylphenyl)-N-{2-oxo-2-[2-(2-oxo-1,2-dihydro-3H-indol-3-ylidene)hydrazino]ethyl}benzenesulfonamide]", "values": [
      {"measurement": "Ki", "setting": "hOT receptor", "result": 17.3, "unit": "nM"},
      {"measurement": "% Reduction of Uterine Contraction", "setting": "[1]; dose 5 mg/kg", "result": "23.9 ± 4.0", "unit": "%"},
      {"measurement": "% Reduction of Uterine Contraction", "setting": "[1]; dose 7.5 mg/kg", "result": "40.3 ± 4.2", "unit": "%"},
      {"measurement": "% Reduction of Uterine Contraction", "setting": "[1]; dose 10 mg/kg", "result": "62.6 ± 5.0", "unit": "%"}
    ]}
  ]
}
